According to patent US8207167B2, “Aryl-phenyl-sulfonamide-phenylene compounds and their use” (PIMCO 2664 Limited, priority 2008, dated 2012):
Converted amounts (≈) assume the structure as drawn. Where two headings read alike, the source gives them in different places.

Experiments:
[1] = Thermodynamic aqueous solubility in fasted state simulated intestinal fluid (FaSSIF); type: physicochemical; details: fasted state simulated intestinal fluid (FaSSIF), pH 6.5, thermodynamic from solid, 25° C., 24 hours equilibration, HPLC
Procedure: (§1) Initial screening of candidate compounds was performed using in vitro assays to determine potency, metabolic stability and solubility in biologically relevant fluids. Potency was assessed using a viability assay based on the survival of the J774 macrophage cell line. Macrophages are closely related to osteoclasts and have been used previously as a model system for osteoclast survival (see, e.g., Luckman et al., 1998). Like osteoclasts, J774 macrophages are dependent on continued NFκB activation for survival, thereby providing a valuable screen for compounds with anti-inflammatory activity. Metabolic stability was measured by determining the rate of disappearance of compound in the presence of human liver microsomal preparations, as quantified by LC-MS/MS. Solubility was measured by equilibration of the compound in fasted state simulated intestinal fluid (FaSSIF) and quantified by HPLC.
Thermodynamic aqueous solubility was measured by equilibration of a number of APSAP compounds, in the solid state, with fasted state simulated intestinal fluid (FaSSIF) and quantified by HPLC. Measurement of solubility in FaSSIF provides a valuable model for the prediction of drug dissolution following oral administration.
Preparation of blank FaSSIF: NaOH pellets (174 mg), NaH2PO4.2H2O (2.235 g), and NaCl (3.093 g) were dissolved in 500 mL of water. The pH was adjusted to 6.5 using 1 M NaOH solution.
Preparation of FaSSIF: Sodium taurocholate (165 mg) was dissolved in 25 mL blank FaSSIF. 0.6 mL of a solution containing 100 mg/mL lecithin in methylene chloride was added. The methylene chloride was eliminated under vacuum at about 40° C. The vacuum was drawn for 15 minutes at 250 mbar, followed by 15 minutes at 100 mbar. […] After cooling to room temperature, the solution was then adjusted to 100 mL with blank FaSSIF.
The suspension was equilibrated at 25° C. for 24 hours, and then the pH was measured. The suspension was then filtered through a glass fibre C filter into a 96-well plate. The filtrate was then diluted by a factor of 100. Quantification was made by HPLC with reference to a standard solution of compound at approximately 0.1 mg/mL in DMSO. Different volumes of the standard, diluted and undiluted sample solutions were injected. The solubility was calculated using the peak areas determined by integration of the peak found at the same retention time as the principal peak in the standard injection. Analysis was performed on an Agilent HP1100 series system equipped with a diode array detector and using ChemStation software vB.02.01-SR1.

[2] = In vivo pharmacokinetics in rat, oral and intravenous; set-up: species or system Sprague-Dawley rats; details: 2.5 mg/kg; for half-life: read-out: T½ (converted)
Procedure: Absorption and metabolic stability were studied using an in vivo pharmacokinetics assay. Drug levels were assessed using ultra-performance LC/TOF-MS.
Three male Sprague-Dawley rats, 200-300 g, were dosed per route. […] Test compound was formulated in 50:50 tetraethylene glycol:PBS for both routes. Animals were given free access to food throughout the study. On the day prior to dosing, the carotid artery was cannulated for sample collection and for the intravenous study, the jugular vein was cannulated to enable dosing.
Blood samples were taken from the carotid artery at the following time points and placed in heparinised tubes:
Oral dosing—predose, 0.25, 0.5, 1, 2, 4, 8 and 24 hours post dose.
IV dosing—predose, 0.08, 0.25, 0.5, 1, 2, 4 and 8 hours post dose.
Blood samples were centrifuged to obtain plasma, which was transferred to a separate container and frozen at −20° C.
Samples were thawed at room temperature and prepared by protein precipitation with acetonitrile in the ratio 1:2 with plasma, followed by centrifugation for 10 minutes at 16,100×g (Eppendorf 5415D, Eppendorf AG, Hamburg, Germany). The supernatants were collected for analysis. The standard samples were prepared similarly, after spiking blank rat plasma samples to study compound concentrations at 1, 2, 5, 10, 20, 50, 100, 200, 500 and 1000 ng/mL. In addition, extra samples were prepared from 0-1 hour i.v. samples by diluting 1/20 with 50% aqueous acetonitrile to avoid exceeding the linear range of the analytical method.
A Waters Acquity liquid ultra-performance chromatographic system (Waters Corp., Milford, Mass., USA) with autosampler, vacuum degasser and column oven was used. The analytical column used for all compounds was a Waters BEH C18, (2.1×50 mm, 1.7 μm, Waters Corp, Milford, Mass., USA) together with a 0.2 μm on-line filter before the column. The eluents were 0.1% acetic acid (A, pH 3.2) and methanol (B). Gradient elution from 5% to 60% B in two minutes was employed, followed by one minute gradient to 90% B and column equilibration. The flow rate was 0.5 mL/min and the column oven temperature was 35° C. The flow was directed to the MS via Water Acquity photo-diode-array (PDA) detector. LC/TOF-MS data were recorded with a Micromass LCT Premier XE time-of-flight (TOF) mass spectrometer (Micromass Ltd., Manchester, England) equipped with a LockSpray electrospray ionization source. A positive ionization mode of electrospray was used for all compounds. The mass range of m/z 100-900 was acquired. The W-option of the reflector was used, and the DRE (dynamic range enhancement) option was set to on. The mass spectrometer and HPLC system were operated under Micromass MassLynx 4.1 software. Leucine enkephalin ([M+H]^+ m/z 556.2771) was used as a lock mass compound for accurate mass measurements and was delivered into the LockSpray probe with a syringe pump. MassLynx 4.1 software was used for controlling the instrumentation and for data processing.
The pharmacokinetic parameters for the test compounds were calculated by WinNonlin Pro (Pharsight Corp, CA) using standard noncompartmental methods. The elimination phase half-life (t1/2) was calculated by least-squares regression analysis of the terminal linear part of the log concentration−time curve. The area under the plasma concentration−time curve (AUC) was determined by use of the linear trapezoidal rule up to the last measurable concentration and thereafter by extrapolation of the terminal elimination phase to infinity. The tentative oral bioavailability (F) was calculated by dividing the AUC (0-24 hours) after p.o. administration by the AUC (0-8 hours) after i.v. administration, i.e., F=AUC(p.o.)/AUC(i.v), and reported as percentages (%).

J774 macrophages = experiment: Alamar Blue macrophage J774 viability assay; type: cell-based; details: Mus musculus, 72 hours culture with compound, Alamar Blue read-out
Procedure: as §1
In vitro potency as anti-inflammatory agents was determined for a number of APSAP compounds by incubation with J774 macrophages and subsequent determination of cell viability.
J774 cells were plated at 10^4 cells per well in 100 μL αMEM (α Modified Eagle Medium) in 96-well plates and grown overnight. The next day, test compounds were added to the cultures, and cultures were continued for another 72 hours. At the end of the culture period, cell survival was determined using an Alamar Blue assay as previously described (see, e.g., Nociari et al., 1998).
Alamar Blue is an oxidation-reduction sensitive indicator. The dye itself is in the oxidised state, which is blue and non-fluorescent. The dye can accept electrons from reducing species, such as NADPH and FADH, to form a reduced dye species, which is red and fluorescent. Thus the transformation from oxidised form to reduced form can be measured by fluorimetric or colourimetric means. For fluorescence measurements, 530-560 nm excitation and 590 nm emission wavelengths are typically used. For colourimetric measurements, absorbance at 570 nm (reduced form) and 600 nm (oxidised form) is typically measured. A simple calculation is performed to determine the relative quantities of the two species.
A high ratio of the reducing species, NADPH and FADH, to the corresponding oxidised species, NADP and FAD, is an indicator that cells are proliferating and viable. A low ratio indicates cells that are quiescent or non-viable.
Briefly, Alamar Blue (Biosource International) was added undiluted to each well (1:10 v/v, 10 μL). The plate was incubated at 37° C. for 3-4 hours and the fluorescence was measured at 590 nm, with a 25 nm bandwidth. A high reading indicated cells with normal viability, and a low reading indicated cells that have been damaged and are no longer proliferating normally. The controls gave a high fluorescence reading, indicating a high number of live, healthy cells. A potent test compound gave a low fluorescence reading.
The average results for each test compound (n=5) were expressed as a percent (%) of the average control value.
Addition of Compounds. All of the compounds studied were made up as 100 mM solutions in DMSO. These stock solutions were then diluted 1000-10000× in culture medium (αMEM). From these 100 μM or 10 μM solutions, convenient quantities (3-33 μL) were added directly to the wells so as to give the desired final compound concentration.

[3] = Human liver microsomal stability assay; type: in vitro ADME; details: pooled human liver microsomes 0.5 mg/mL, test compound 3 μM, 45 minute incubation, NADPH; for half-life at 3 μM: both sexes, pH 7.4
Procedure: as §1
Metabolic stability of APSAP derivatives was measured by determination of the rate of compound disappearance when incubated in the presence of human liver microsomes. Liver microsomes are prepared from the endoplasmic reticulum of hepatocytes and are the primary source of the most important enzymes (cytochrome P450) involved in drug metabolism. Study of drug stability in the presence of liver microsomes is accepted as a valuable model permitting rapid prediction of in vivo drug stability.
Human liver microsomes were obtained from a commercial source. Test compounds (3 μM) were incubated with pooled liver microsomes (male and female). Samples were incubated for a 45 minute period and removed at 5 time points and test compounds were analysed by LC-MS/MS.
The final incubation volume was 25 μL. A control incubation was included for each compound tested, where 0.1 M phosphate buffer pH 7.4 was added instead of NADPH. The control compounds testosterone and 7-hydroxycoumarin were included in each experiment and all incubations were performed singularly for each compound.
Each compound was incubated for 0, 5, 15, 30, and 45 minutes. The control (minus NADPH) was incubated for 45 minutes only. The reactions were stopped by the addition of 50 μL methanol containing internal standard at the appropriate time points. The incubation plates were centrifuged at 2500 rpm for 20 minutes at 4° C. to precipitate the protein.
Following protein precipitation, the sample supernatants were combined in cassettes of up to 4 compounds and analysed using standard LC-MS/MS conditions.
From a plot of the natural logarithm of the peak area ratio (i.e., the ratio of compound peak area:internal standard peak area) against time, the gradient of the line was determined. Subsequently, half-life and intrinsic clearance were calculated using the equations below: Eliminated rate constant(k)=(−gradient). […] Intrinsic Clearance(CLint)([…])=(V×0.693)/t1/2. wherein V=Incubation volume(μL/mg microsomal protein). Pharmacokinetics Studies

Row | SMILES | solubility at 24 h [1] | AUC ([2]; i.v.) | half-life ([2]; male, Sprague-Dawley, plasma, iv, i.v.) | bioavailability ([2]; male, Sprague-Dawley, plasma, oral, F=AUC(p.o.)/AUC(i.v.)) | half-life ([2]; male, Sprague-Dawley, plasma, po, p.o.) | AUC ([2]; p.o.) | T1/2 [3] | half-life at 3 μM [3] | IC50 (J774 macrophages)
1 | O=S(=O)(Nc1cccc(C(O)CN2CCOCC2)c1)c1ccc(-c2ccc(F)cc2F)cc1 (stereo not drawn) [ABD785, 2′,4′-Difluoro-N-(3-(1-hydroxy-2-morpholinoethyl)phenyl)biphenyl-4-sulfonamide] | 210 µg/mL (≈ 443 µM) |  |  |  |  |  |  | 6 min | 4710 nM
2 | NCc1cccc(NS(=O)(=O)c2ccc(-c3ccc(F)cc3F)cc2)c1 [ABD788, N-(3-(Aminomethyl)phenyl)-2′,4′-difluorobiphenyl-4-sulfonamide] | 50 µg/mL (≈ 134 µM) |  |  |  |  |  |  | 60 min | 1000 nM
3 | O=S(=O)(Nc1cccc(C(CO)N2CCOCC2)c1)c1ccc(-c2ccc(F)cc2F)cc1 (stereo not drawn) [ABD792, 2′,4′-Difluoro-N-(3-(2-hydroxy-1-morpholinoethyl)phenyl)biphenyl-4-sulfonamide] | 4400 µg/mL (≈ 9270 µM) |  |  |  |  |  |  | 2 min | > 30000 nM
4 | N[C@H](CO)c1cccc(NS(=O)(=O)c2ccc(-c3ccc(F)cc3F)cc2)c1 [ABD855, (S)—N-(3-(1-Amino-2-hydroxyethyl)phenyl)-2′,4′-difluorobiphenyl-4-sulfonamide] | 4100 µg/mL (≈ 10100 µM) |  |  |  |  |  |  | 289 min | 860 nM

Further lines, with some results ahead:

Row | solubility at 24 h [1] | AUC ([2]; i.v.) | half-life ([2]; male, Sprague-Dawley, plasma, iv, i.v.) | bioavailability ([2]; male, Sprague-Dawley, plasma, oral, F=AUC(p.o.)/AUC(i.v.)) | half-life ([2]; male, Sprague-Dawley, plasma, po, p.o.) | AUC ([2]; p.o.) | T1/2 [3] | half-life at 3 μM [3] | SMILES | IC50 (J774 macrophages)
5 | 40 µg/mL (≈ 98 µM) | 9 ng/mL/min | 31.8 min | 3% | 48 min | 1.2 ng/mL/min |  |  | O=S(=O)(Nc1cccc(CO)c1)c1ccc(-c2ccc(Cl)cc2Cl)cc1 [ABD455, 2′,4′-dichloro-N-(3-(hydroxymethyl)phenyl)biphenyl-4-sulfonamide, reference compound] | 
6 | 370 µg/mL (≈ 884 µM) |  |  |  |  |  | Stable |  | CNCC(O)c1cccc(NS(=O)(=O)c2ccc(-c3ccc(F)cc3F)cc2)c1 (stereo not drawn) [ABD783, 2′,4′-Difluoro-N-(3-(1-hydroxy-2-(methylamino)ethyl)phenyl)biphenyl-4-sulfonamide] | 1180 nM
7 | 3000 µg/mL (≈ 6940 µM) |  |  |  |  |  |  | 27 min | CN(C)C(CO)c1cccc(NS(=O)(=O)c2ccc(-c3ccc(F)cc3F)cc2)c1 (stereo not drawn) [ABD791, N-(3-(1-(Dimethylamino)-2-hydroxyethyl)phenyl)-2′,4′-difluorobiphenyl-4-sulfonamide] | 570 nM
